US4663435A, “Bridged cyclic hexapeptide somatostatin analogs” (Merck & Co., Inc., priority 1985, dated 1987)
Positions of bridges follow the written chain, without caps; N, C: chain ends. Non-standard residues stand in square brackets, D forms with d. Residues, ends and D or L forms follow the SMILES beside them.

Tests used:
[1] = stability of the isolated peptide with respect to polymerization; format: physicochemical
Experimental: In order to stabilize the compound toward such decomposition it was treated in aqueous solution with 10-40 mole % of N-ethylmaleimide, a reagent which will react with free sulfhydryl groups that could catalyze disulfide interchange. The excess N-ethyl maleimide was separated by passage through a column of Sephadex G-25 gel (superfine) eluted with 50% acetic acid.

portal vein glucagon = assay: decrease of portal vein glucagon levels in anesthetized rats; format: in vivo, rat; conditions: relative to somatostatin (=1), external jugular vein, portal vein blood after 5 minutes
Experimental: (§1) Analogs of somatostatin were compared to somatostatin in their ability to decrease the levels of portal vein glucagon and insulin in anesthetized rats. Male Sprague-Dawley rats (Charles River CD) weighing 160-200 g were anesthetized with urethane (150 mg/100 g of body weight; Aldrich). Saline or peptides were adminstered via the external jugular vein. After 5 minutes, the portal vein was exposed, and blood was collected via syringe containing 3 mg of EDTA and placed in chilled tubes containing 100 μl of Trasylol (FBA Pharmaceuticals) for subsequent hormone analysis. Plasma levels of glucagon were determined by the method of Faloona and Unger, Methods of Hormone Radioimmunoassay, Jaffe and Behrman (Eds), Academic Press, New York, Vol. II, pp. 257-527 (1976), utilizing glucagon antisera 30K obtained from R. Unger (Dallas, TX). Plasma levels of insulin were determined by a modification of the procedure of Herbert et al., J. Clin. Endocrinol. Metab., 25, 1375-1384 (1965).

[2] = tested on: growth hormone release from rat pituitary cells; assay: in vitro test for the inhibition of growth hormone release, cultured rat pituitary cells; format: cell-based; conditions: multiple or fraction of the effect of somatostatin (=1), fiducial limits in parentheses, 4 hours incubation
Experimental: The instant cyclic hexapeptide analogs of somatostatin are tested and compared with the effects of somatostatin in an in vitro test for the inhibition of growth hormone. The test is described as follows:
"Rat pituitaries were isolated according to the procedures of Vale and Grant `In Vitro Pituitary Hormone Secretion Assay for Hypophysiotropic Substances` in Methods in Enzymology. Vol. XXXVII, eds. O'Malley, B. W. and Hardman, J. G. (Academic Press, Inc., New York) pp. 5-93 (1975).
After 4 days in culture, the cells were washed and incubated for 4 hours in Dulbecco-modified Eagle's medium in the presence or absence of graded doses of each analog or somatostatin. The medium was then collected for subsequent growth hormone determination by a double antibody radioimmunoassay for rat growth hormone."

portal vein insulin = assay: decrease of portal vein insulin levels in anesthetized rats; format: in vivo, rat; conditions: multiple or fraction of the effect of somatostatin (=1), fiducial limits in parentheses, external jugular vein, portal vein blood after 5 minutes
Experimental: as §1

| SMILES | stability with respect to polymerization ([1]; after treatment with 10-40 mole % of N-ethylmaleimide and reisolation) | stability with respect to polymerization ([1]; sample as isolated, in certain solvents or on extended storage) | Glucagon Inhibition (portal vein glucagon) | Growth Hormone Release Inhibition [2] | Insulin Inhibition (portal vein insulin) |
| --- | --- | --- | --- | --- | --- |
| C[C@@H](O)[C@@H]1NC(=O)[C@H](CCCCN)NC(=O)[C@@H](Cc2c[nH]c3ccccc23)NC(=O)[C@H](Cc2ccccc2)NC(=O)[C@@H]2CSSC[C@H](NC1=O)C(=O)N2 (cyclo(CCF[dW]KT); disulfide 1-2) | completely stable | unstable | Active | 2.47(1.66-3.81) | 10.6(5.5-19.9) |
| C[C@H](N)C(=O)NCC(=O)N[C@H]1CSSC[C@@H](C(=O)O)NC(=O)[C@H](CO)NC(=O)[C@H]([C@@H](C)O)NC(=O)[C@H](Cc2ccccc2)NC(=O)[C@H]([C@@H](C)O)NC(=O)[C@H](CCCCN)NC(=O)[C@H](Cc2c[nH]c3ccccc23)NC(=O)[C@H](Cc2ccccc2)NC(=O)[C@H](Cc2ccccc2)NC(=O)[C@H](CC(N)=O)NC(=O)[C@H](CCCCN)NC1=O [Somatostatin] |  |  | 1 |  |  |
